The subject of experiment [1] is P. falciparum (3D7 strain) merozoite proteins. Kind of experiment: Blot overlay assay, merozoite proteins. In kind it is binding, Plasmodium falciparum. To be noted: biotinylated peptides each 400 μM. On the procedure:
(§1) Naturally released P. falciparum (3D7 strain) merozoites isolated as described (Mrema, J. E., et al., Exp Parasitol 54:285-295, 1982) and human RBC ghosts prepared as described (Dodge, J. T., et al., Arch Biochem Biophys 100:119-130, 1963) were subjected to SDS-PAGE. Proteins transferred onto nitrocellulose membrane were blocked overnight with 10% milk, 2% BSA, TBST (0.05%) at 4° C. After washing (4×) in TBST, the blot was incubated with biotinylated Band 3 peptides (each 400 μM) in TBST (0.025%), 10 mM phosphate buffer (pH 8.0), 60 mM KCl for 4 h at RT. After extensive washing, the blot was incubated with neutravidin-linked horseradish peroxidase (1:21,000, Pierce Chemical Co., Rockford, Ill.) in TBST (0.05%) with 2% BSA for 5-6 h at RT. After washing the blot with TBST (5×) and TBS (2×), bound peptides were visualized by the ECL method (Pierce Chemical Co.).
(§2) A binding study was carried out between the synthetic Band 3 peptides and merozoite proteins to understand the mechanism by which Band 3 peptides 5B, 5C, and 6A inhibit the parasite invasion of RBCs. P. falciparum merozoites essentially free of contaminating RBC membrane components were isolated (FIG. 3A), and total merozoite proteins were separated by SDS-PAGE (FIG. 3B). […] This was confirmed by Western blot using anti-spectrin and anti-Band 3 antibodies (not shown). […] Approximate molecular masses of these merozoite proteins are 175, 150, 125, 52, 48, 42, and 35 kDa (shown by arrowheads).

Another experiment has as its system human RBC ghost proteins. Kind of experiment: Blot overlay assay, RBC ghost proteins. In kind it is binding. To be noted: biotinylated peptides each 400 μM. On the procedure:
as §1, §2

In experiment [2] the test system is P. falciparum intraerythrocytic growth. Kind of experiment: Growth inhibition assay by 3H-hypoxanthine incorporation method. In kind it is cell-based, Plasmodium falciparum. To be noted: 400 μM peptide; vs no peptide control. As to the method:
(§3) FIG. 2 depicts the inhibition of P. falciparum invasion into RBCs by human Band 3 peptides. […] Ectodomains are shown as boxes in the three models. (i) Overlapping 12 to 20-residue peptides shown in solid bars were prepared according to the putative ectodomain boundaries. (ii) Casey model (Fujinaga, J., et al., J Biol Chem 274:6626-6633, 1999). (iii) Reithmeier model (Popov, M., et al., J Biol Chem 272:18325-18332, 1997). (iv) Sherman model (Crandall, I., et al., Parasitology 108:257-267, 1994). […] Artemisinin (25 μM) and no peptide samples were positive and negative controls, respectively. FIG. 2C is a bar graph depicting of invasion inhibition assay by ^3H-hypoxanthine incorporation method. Effects of Band 3 peptides relative to the control sample (no peptide) are shown. Artemisinin (50 μM) and unrelated peptide derived from dematin were used as positive and negative control, respectively. FIG. 2D is a bar graph that depicts results of a growth inhibition assay by ^3H-hypoxanthine incorporation method. Effects of Band 3 peptides relative to the control sample (no peptide) are shown. In all inhibition assays, mean parasitemia from three experiments was calculated with standard error. DMSO background was corrected when necessary. Student's t test was used to compare with the control (no peptide). FIG. 2E is a table providing a summary of net charge and pI for Band 3 peptides.
(§4) To investigate the possible role of Band 3 as a host receptor in P. falciparum invasion into RBCs, we employed a peptide scanning strategy based on recent topology models of human erythroid Band 3 (FIG. 2A). Synthetic peptides were derived from the putative ectodomains of human RBC Band 3, and their ability to inhibit the P. falciparum (3D7 strain) invasion of human RBCs in culture was tested using both visual counting (Schlichtherle, M., et al., Methods in Malaria Research 2000) and ^3H-hypoxanthine incorporation (Chulay, J. D., et al., Exp Parasitol 55:138-146, 1983) methods. […] Inhibition by these four Band 3 peptides was concentration dependent (50, 200, 500, and 1000 μM peptides, data not shown).

Experiment [3] has as its system P. falciparum (3D7 strain) invasion of human RBCs. Kind of experiment: Invasion inhibition assay by 3H-hypoxanthine incorporation method. In kind it is cell-based, Plasmodium falciparum. The settings on record: for inhibition of invasion, 3H-hypoxanthine uptake assay: 400 μM peptide, vs other Band 3 peptides, no peptide and unrelated peptide; for IC50: 3H-hypoxanthine incorporation method, mean of three experiments±standard error, read-out: IC50 (50% inhibition in the parasite invasion of RBCs). On the procedure:
as §3, §4
The IC50 values for peptides 5A and 5B could not be estimated because a saturable peptide concentration could not be reached with a low DMSO (≦1%) concentration. It is noteworthy that our peptides 5A, 5B, 5C, and 6A were designed by randomly dividing the two ectodomains of Band 3, and thus these peptides may not necessarily represent Band 3 amino acid compositions having the best inhibitory property. […] These findings are consistent with the view that Band 3 functions as an important receptor in the parasite invasion of RBCs.

The test system is the same in experiment [4]. Put plainly: Invasion inhibition assay by visual counting method. It counts as cell-based, Plasmodium falciparum. To be noted: for inhibition of invasion, visual counting assay: 500 μM peptide, ring stage parasites in Giemsa-stained thin smears, vs other Band 3 peptides and no peptide control; for inhibition of the invasion of Plasmodium falciparum malaria parasite into human erythrocytes in vitro: peptide scanning experiment, compared to control sample. As to the method:
as §3
Plasmodium parasite cultures were maintained at 37° C. as described by Klotz, F. W., et. al., J Exp Med 165:1713-1718, 1987. To determine infection in RBCs, rings were counted from RBCs in Geimsa-stained thin smears.
as §4

For a further experiment, the system named is GST-MSP138. Kind of experiment: Solution-binding assay, GST-MSP138 on beads. Set-up: species or system P. falciparum (FCB1 strain). The text has this:
MSP138 (SEQ ID NO:33), MSP142 (SEQ ID NO:34), and MSP119 (SEQ ID NO:35) genes were amplified from a P. falciparum (FCB1 strain) cDNA library (J. B. Dame) by PCR using the following primers: 5′-[…] (SEQ ID NO: 14, MSP138, sense, 3121-3133, Xhol), 5′-[…] (SEQ ID NO:15, MSP138, antisense, 4200-4193, NotI), 5′-[…] (SEQ ID NO:16, MSP142, sense, 4201-4218, XhoI), 5′-[…] (SEQ ID NO:17, MSP142, antisense, 5334-5321 NotI), 5′-[…]: (SEQ ID NO:18, MSP119, sense, 4993-5009 BamHI), 5′-[…] (SEQ ID NO:19, MSP119, antisense, 5334-5318, EcoRI). Similar cDNA libraries as well as CDNA pools are available to the public from MR4, ATCC (www.malaria.atcc.org).
Primers: 5′-[…] […] (SEQ ID NO:26, 6AB, antisense, 2640-2620, EcoRI).

Experiment [5] addresses T1, SV40 large T-antigen fused to GAL4 AD (pGADT7 vector), two-hybrid control (UniProt P03070 86-708).
T1 construct: Kit control; also called pGADT7-T
Put plainly: yeast two-hybrid assay.
Description: For the yeast two-hybrid assay, the co-transformation method was used to analyze the protein interaction in yeast AH109 cells using SD/-Leu/-Trp selection plates.

Entries after “also recorded” stand apart in the source; their conditions may differ. Ends that are not written are not given here. * marks the point of attachment. Biotin = O=C1N[C@H]2[C@H](CS[C@H]2CCCCC(=O)*)N1

T1 sequence (P03070 86-708 limits assumed): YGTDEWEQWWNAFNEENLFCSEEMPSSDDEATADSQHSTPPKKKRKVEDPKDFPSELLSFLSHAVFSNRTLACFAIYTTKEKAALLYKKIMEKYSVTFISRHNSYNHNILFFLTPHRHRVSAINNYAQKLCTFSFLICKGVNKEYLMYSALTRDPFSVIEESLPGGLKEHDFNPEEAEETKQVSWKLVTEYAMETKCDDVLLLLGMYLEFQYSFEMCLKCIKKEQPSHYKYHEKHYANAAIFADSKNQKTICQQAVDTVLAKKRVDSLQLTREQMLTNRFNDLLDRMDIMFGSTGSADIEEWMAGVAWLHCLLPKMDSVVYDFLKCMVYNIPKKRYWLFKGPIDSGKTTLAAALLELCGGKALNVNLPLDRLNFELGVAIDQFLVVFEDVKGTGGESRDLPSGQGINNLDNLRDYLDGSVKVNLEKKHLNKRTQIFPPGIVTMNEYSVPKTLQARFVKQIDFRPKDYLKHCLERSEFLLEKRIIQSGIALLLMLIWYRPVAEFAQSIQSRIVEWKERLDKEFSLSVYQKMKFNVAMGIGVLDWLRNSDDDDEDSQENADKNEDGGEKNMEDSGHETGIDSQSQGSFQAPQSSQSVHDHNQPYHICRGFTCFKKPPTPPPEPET

For “2: Synthetic human Band 3 peptide, amino acid 477-491, N-terminal biotin tag (Biotin-SFCETNGLEYIVGRV; UniProt P02730 477-491, looked up, fragment) [Peptide 2]”, in experiment [1], the “binding to merozoite proteins, blot overlay” value (shortened to “binding to merozoite proteins”) is on record as “did not show significant binding”. Moreover, in the experiment with human RBC ghost proteins, the “binding to RBC ghost proteins, blot overlay” value (“binding to RBC ghost proteins” for short) is recorded as “non-specific bindings”. Also, the “effect on intraerythrocytic growth of the parasite (3H-hypoxanthine uptake)” value (from here on “effect on intraerythrocytic growth”) in experiment [2] is on record as “mild reduction in 3H-hypoxanthine uptake”.

With “Peptide 1: Synthetic human Band 3 peptide, amino acid 424-435, N-terminal biotin tag (Biotin-GGLLGEKTRNQM; UniProt P02730 424-435, looked up, fragment)”, the “effect on intraerythrocytic growth” value in experiment [2] is “mild reduction in 3H-hypoxanthine uptake”. Further, in experiment [3], the “inhibition of invasion, 3H-hypoxanthine uptake assay” value was “moderate but significant levels of inhibition of invasion”.

As to “SVTHANALTVMGKASTPGAA [Peptide 5B, Synthetic human Band 3 peptide, amino acid 731-750]”, in experiment [4], the “inhibition of invasion, visual counting assay” value is “significant levels of inhibition of invasion” and the “inhibition of the invasion of Plasmodium falciparum malaria parasite into human erythrocytes in vitro” value (shortened to “inhibition of the invasion … in vitro”) is reported as “inhibited the invasion”. Besides, the “effect on intraerythrocytic growth” value in experiment [2] is on record as “did not affect the intraerythrocytic growth of the parasite”. Besides, in experiment [3], the “inhibition of invasion, 3H-hypoxanthine uptake assay” value is recorded as “moderate but significant levels of inhibition of invasion”.

Turning to “5BC: Recombinant human Band 3 peptide, amino acid 731-761, expressed as GST or GAL4 DNA-BD fusion (SVTHANALTVMGKASTPGAAAQIQEVKEQRI; also: expressed as GST or GAL4 DNA-BD fusion) [Peptide 5BC]”, the “binding to GST-MSP138 on beads” value in the experiment on GST-MSP138 (32P-labeled 5BC 21, 42, 84, 168 μM) is “concentration-dependent manner”. The Kd (in general, the free concentration of one partner at which half of the binding sites on the other are occupied at equilibrium, for simple one-to-one binding) at GST-MSP138 (32P-labeled peptide, pH 7.4, 25° C., 3.5 h, C-terminal truncated GST-MSP138) came to 67 µM.

Regarding “DRILLLFKPPKYHPDVPYVK [Peptide 6A, Synthetic human Band 3 peptide, amino acid 807-826]”, in experiment [1], the “binding to merozoite proteins” value is on record as “specifically bind”. Further, the “inhibition of invasion, visual counting assay” value in experiment [4] was “significant levels of inhibition of invasion”. In experiment [4] (listed as B36A), the “inhibition of the invasion … in vitro” value is “inhibited the invasion; also recorded: highest inhibition”. Further, the “effect on intraerythrocytic growth” value in experiment [2] is on record as “did not affect the intraerythrocytic growth of the parasite”. Further, in experiment [3], the “inhibition of invasion, 3H-hypoxanthine uptake assay” value is reported as “strong inhibition” and the IC50 (in general, the point on the concentration scale where inhibition reaches its midpoint) was 316 ± 45 µM.

As for “3A: Synthetic human Band 3 peptide, amino acid 538-557, N-terminal biotin tag (Biotin-SKLIKIFQDHPLQKTYNYNV; UniProt P02730 538-557, looked up, fragment) [Peptide 3A]”, the “binding to merozoite proteins” value in experiment [1] is reported as “did not show significant binding”. In addition, the “binding to RBC ghost proteins” value with human RBC ghost proteins is on record as “non-specific bindings”.

Turning to “4A: Synthetic human Band 3 peptide, amino acid 623-642, N-terminal biotin tag (Biotin-FIQDTYTQKLSVPDGFKVSN; UniProt P02730 623-642, looked up, fragment) [Peptide 4A]”, the “binding to merozoite proteins” value in experiment [1] is reported as “did not show significant binding”. Also, in the experiment on human RBC ghost proteins, the “binding to RBC ghost proteins” value is on record as “non-specific bindings”.

With “GKASTPGAAAQIQEVKEQRI [Peptide 5C, Synthetic human Band 3 peptide, amino acid 742-761]”, the “binding to merozoite proteins” value in experiment [1] is listed as “specifically bind”. Also, the “inhibition of invasion, visual counting assay” value in experiment [4] was “significant levels of inhibition of invasion”. Besides, the “inhibition of the invasion … in vitro” value in experiment [4] (listed as B35C) is listed as “inhibited the invasion; also recorded: highest inhibition”. The “effect on intraerythrocytic growth” value in experiment [2] is on record as “did not affect the intraerythrocytic growth of the parasite”. In experiment [3], the “inhibition of invasion, 3H-hypoxanthine uptake assay” value is recorded as “moderate but significant levels of inhibition of invasion” and the half-inhibitory concentration (IC50) came out at 591 ± 131 µM.

In the case of GMPWLSATTVRSVTHANALT [Peptide 5A], in experiment [4], the “inhibition of invasion, visual counting assay” value is recorded as “significant levels of inhibition of invasion” and the “inhibition of the invasion … in vitro” value is recorded as “inhibited the invasion”. The “effect on intraerythrocytic growth” value in experiment [2] is listed as “mild reduction in 3H-hypoxanthine uptake”.

B1: GAL4 DNA-BD fusion of Band 3 peptide 6AB (amino acids 807-842) in pGBKT7 (other)
peptide: DRILLLFKPPKYHPDVPYVKRVKTWRMHLFTGIQII
modifications: not fully specified (N-terminus); also: GAL4 DNA-BD fusion in pGBKT7, fused part not given here
For the molecule B1, in experiment [5], the binding result was “no binding”.

B2: GAL4 DNA-BD fusion of Band 3 peptide 5ABC (amino acids 720-761) in pGBKT7 (other)
peptide: GMPWLSATTVRSVTHANALTVMGKASTPGAAAQIQEVKEQRI
modifications: not fully specified (N-terminus); also: GAL4 DNA-BD fusion in pGBKT7, fused part not given here
notes: also called BD-5ABC; pGBKT7-5ABC
In the case of B2, the binding result in experiment [5] is reported as “no binding”.

B3: GAL4 DNA-BD fusion of Band 3 peptide 5BC (amino acids 731-761) in pGBKT7 (other)
peptide: SVTHANALTVMGKASTPGAAAQIQEVKEQRI
modifications: not fully specified (N-terminus); also: GAL4 DNA-BD fusion in pGBKT7, fused part not given here
With B3, in experiment [5], the binding result was “no binding”.

(Values after patent US20030059436A1, “Band 3 antigenic peptides, malaria polypeptides and uses thereof” (priority 2001, published 2003).)
